Consider 3 compounds from patent US20060142323A1, “Dual binding site acetylcholinesterase inhibitors for the treatment of alzheimer's disease” (priority 2002, published 2006).

pIC50: −log10 of the molar value.

The test system of data set [1] is human neuroblastoma cell line SH—SY5Y. The data set can be described thus: Toxicity measurement (LDH) in SH-SY5Y cells. To be noted: 24 hours exposure. The data set is classed as cell-based. The method, then: The cytotoxicity effect of the molecules was tested in the human neuroblastoma cell line SH—SY5Y. These cells were cultured in 96-well plates in minimum essential medium, Han's F12 medium, supplemented with 10% fetal bovine serum, 1% glutamine and 1% penicillin/streptomycin, and grown in. a 5% CO2 humidified incubator at 37° C.
The cells were plated at 10^4 cells for each well, at least, 48 hours before the toxicity measure. Cells were exposed for 24 hours to the compounds at different concentrations (from 10^−5 to 10^−9), quantitative assessment of cell death was made by measurement of the intracellular enzyme lactate dehydrogenase (LDH) (citotoxicity detection kit, Roche). The cuantity of LDH was evaluated in a microplate reader Anthos 2010, at 492 and 620 nm. Controls were taken as 100% viability.

The target in data set [2] is T1, AChE from bovine erythrocytes (Bos taurus, UniProt P23795).
T1 construct: 0.02 units AChE (Sigma Chemical Co. from bovine erythrocytes); purchased Sigma Chemical Co; host or cells: bovine erythrocytes
T1 sequence (P23795 31-614 isoform P23795-2 limits assumed): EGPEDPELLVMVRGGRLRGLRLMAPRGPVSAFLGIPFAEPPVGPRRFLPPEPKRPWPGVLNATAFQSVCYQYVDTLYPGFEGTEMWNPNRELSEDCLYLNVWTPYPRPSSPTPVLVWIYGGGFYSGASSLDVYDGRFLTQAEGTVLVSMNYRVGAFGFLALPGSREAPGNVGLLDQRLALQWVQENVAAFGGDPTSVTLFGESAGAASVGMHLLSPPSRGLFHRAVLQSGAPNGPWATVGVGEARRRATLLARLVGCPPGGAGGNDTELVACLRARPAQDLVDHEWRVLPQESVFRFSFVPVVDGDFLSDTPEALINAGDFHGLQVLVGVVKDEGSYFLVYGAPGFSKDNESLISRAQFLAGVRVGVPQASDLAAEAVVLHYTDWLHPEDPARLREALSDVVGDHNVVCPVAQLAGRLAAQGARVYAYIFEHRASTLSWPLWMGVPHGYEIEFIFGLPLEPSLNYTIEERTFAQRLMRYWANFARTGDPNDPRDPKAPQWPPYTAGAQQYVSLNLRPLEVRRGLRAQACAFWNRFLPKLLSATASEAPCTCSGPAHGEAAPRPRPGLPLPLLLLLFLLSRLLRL
Description: Acetylcholinesterase (AChE) inhibition (from bovine erythrocytes), Ellman method at 30° C., Digiscan 340T. As to conditions: bovine erythrocytes AChE, 30° C., 5 min preincubation; read-out: IC50 AchE. The data set is classed as biochemical. How it is done:
Acetylcholinesterase (AChE) Inhibition (from Bovine Erythrocytes)
AChE inhibitory activity was evaluated at 30° C. by the colorimetric method reported by Ellman [Ellman, G. L.; Courtney, K. D.; Andres, B.; Featherstone, R. M. Biochem. Pharmacol. 1961, 7, 88-95]. The assay solution consisted of 0.1 M phosphate buffer pH 8, 0.3 mM 5,5′-dithiobis (2-nitrobenzoic acid) (DTNB, Ellman's reagent), 0.02 units AChE (Sigma Chemical Co. from bovine erythrocytes), and 0.5 mM acetylthiocholine iodide as the substrate of the enzymatic reaction. The compounds tested were added to the assay solution and preincubated with the enzyme for 5 min at 30° C. After that period, the substrate was added. The absorbance changes at 405 nm were recorded for 5 min with a microplate reader Digiscan 340T, the reaction rates were compared, and the percent inhibition due to the presence of test compounds was calculated. The reaction rate was calculated with, at least, triplicate measurements, and the percent inhibition due to the presence of test compound was calculated relative to the compound-free control.
(In general: Ellman's reagent forms a yellow product with free thiols.)

The target of data set [3] is AChE peripheral site (Homo sapiens, UniProt P22303). Description: Propidium competition (fluorescence). The data set is classed as binding. To be noted: 20 μM propidium iodide, AChE incubated at least 6 hours with compound. The method, then:
Fluorescence was measured in a Fluostar optima plate reader (BMG). Measurements were carried out in 100 μl solution volume, in 96-well plates. The buffer used was 1 mM Tris/HCl, pH 8.0. […] AChE was incubated, at least 6 hours, with the molecules at different concentrations. 20 μM propidium iodide was added 10 min before fluorescence measurement.

Data set [4] concerns the target T2, BuChE from human serum (Homo sapiens, UniProt P06276).
T2 construct: The assay solution consisted of 0.01 units BuChE from human serum; from tissue; host or cells: human serum
Description: Butyrylcholinesterase (BuChE) inhibition (from human serum). The data set is classed as biochemical. As to conditions: human serum BuChE, 30° C., 10 min preincubation; read-out: IC50 BuChE. How it is done: Butyrylcholinetersae (BuChE) Inhibition (from Human Serum)
BuChE inhibitory activity was evaluated at 30° C. by the colorimetric method reported by Ellman (Ellman, G. L.; Courtney, K. D.; Andres, B.; Featherstone, R. M. Biochem. Pharmacol. 1961, 7, 88-95]. The assay solution consisted of 0.01 units BuChE from human serum, 0.1 M sodium phosphate buffer pH 8, 0.3 mM 5,5′-dithiobis (2-nitrobenzoic acid) (DTNB, Ellman's reagent), and 0.5 mM butylthiocholine iodide as the substrate of the enzymatic reaction. Enzyme activity was determined by measuring the absorbance at 405 nm during 5 minutes with a microplate reader Digiscan 340T. The tested compounds were preincubated with the enzyme for 10 minutes at 30° C. The reaction rate was calculated with, at least, triplicate measurements.

In data set [5] the target is T1, AChE from bovine erythrocytes. The data set can be described thus: AChE inhibition (from bovine erythrocytes), Ellman method at 25° C., Fluostar reader. As to conditions: 0.5 mM acetylthiocholine iodide, pH 8, 10 min preincubation. The data set is classed as biochemical. The method, then: AChE Inhibition (from Bovine Erythocytes)
AChE inhibitory activity was evaluated at 25° C. by the colorimetric method reported by Ellman (Ellman, G. L.; Courtney, K. D.; Andres, B.; Featherstone, R. M. Biochem. Pharmacol. 1961, 7, 88-95). The assay solution consisted on 0.02 unit/ml AChE from bovine erythrocytes, 0.1 M sodium phosphate buffer pH 8, 0.3 mM 5,5′-dithiobis (2-nitrobenzoic […]), and 0.5 mM acetylthiocholine iodide as the substrate of the enzymatic reaction. Enzyme activity was determined by measuring the absorbance at 405 nm during 10 minutes with a Fluostar optima plate reader (BMG). The tested compounds were preincubated with the enzyme for 10 minutes at 30° C.

Data set [6] has as its target T3, AChE from human erythrocytes (Homo sapiens, UniProt P22303).
T3 construct: 0.02 unit/ml AChE (Sigma Chemical Co. from human erythrocytes); purchased Sigma Chemical Co; host or cells: human erythrocytes
The data set can be described thus: AChE inhibition (from human erythrocytes), Ellman method. The data set is classed as biochemical. To be noted: 10 min preincubation at 30° C., 400 μM acetylthiocholine iodide, pH 8. The method, then: AChE Inhibition (from Human Erythrocytes)
The method of Ellman et al. (Ellman, G. L.; Courtney, K. D.; Andres, B.; Featherstone, R. M. Biochem. Pharmacol. 1961, 7, 88-95) was followed. The assay solution consisted of 0.1 M phosphate buffer pH 8, 200 μM 5,5′-dithiobis(2-nitrobenzoic acid) (DTNB, Ellan's reagent), 0.02 unit/ml AChE (Sigma Chemical Co. from human erythrocytes), and 400 μM acetylthiocholine iodide as the substrate of the enzymatic reaction. The compounds tested were added to the assay solution and pre incubated with the enzyme for 10 min at 30° C. After that period, the substrate was added. The absorbance changes at 412 nm were recorded for 5 min with a Perkin-Elmer 550 SE UV/VIS spectrometer, the reaction rates were compared, and the percent inhibition due to the presence of test compounds was calculated.

Data set [7] has as its target T4, AChE from SH—SY5Y cells (Homo sapiens, UniProt P22303).
T4 construct: The assay solution consisted of AChE from neuronal cells; endogenous in cells; host or cells: SH-SY5Y human neuroblastoma cells
Description: Neuronal AChE activity, enzyme preparation from SH-SY5Y cells. It counts as biochemical. As to conditions: pH 8, 0.5 mM acetylthiocholine iodide, read-out: IC50 AChE SH-SY5Y (human neuroblastoma). The method, then:
(§1) Acetylcholinesterase (AChE) enzyme preparations were obtained from SH—SY5Y, SK—N—SH and N2A cells.
(§2) CELL CULTURE: The human neuroblastoma cell line SH—SY5Y was cultured in minimum essential medium, Han's F12 medium, supplemented with 10% fetal bovine serum and 1% penicillin/streptomycin, and grown in a 5% CO2 humidified incubator at 37° C. […] The rat neuroblastoma cell line N2A was cultured in DULBECCO'S MOD EAGLE medium, supplemented with 10% fetal bovine serum and 1% penicillin/streptomycin, and grown in a 5% CO2 humidified incubator at 37° C. The cells were plated at 250 10^3 cells for each reaction, at least, 48 hours before the AChE activity measure. Cells were washed and harvested in 0.1 M sodium phosphate buffer pH 8, at 4° C.
(§3) The assay solution consisted of AChE from neuronal cells, 0.1 M phosphate buffer pH 8, 0.3 mM 5,5′-dithiobis (2-nitrobenzoic acid) (DTNB, Ellman-s reagent), and 0.5 mM acetylthiocholine iodide as the substrate of the enzymatic reaction. […] The reaction rate was calculated with, at least, triplicate measurements, and the percent inhibition due to the presence of test compound was calculated relative to the compound-free control.

The target in data set [8] is T5, AChE from SK—N—SH cells (Homo sapiens, UniProt P22303).
T5 construct: The assay solution consisted of AChE from neuronal cells; endogenous in cells; host or cells: SK-N-SH human neuroblastoma cells
T5 sequence (P22303 32-614): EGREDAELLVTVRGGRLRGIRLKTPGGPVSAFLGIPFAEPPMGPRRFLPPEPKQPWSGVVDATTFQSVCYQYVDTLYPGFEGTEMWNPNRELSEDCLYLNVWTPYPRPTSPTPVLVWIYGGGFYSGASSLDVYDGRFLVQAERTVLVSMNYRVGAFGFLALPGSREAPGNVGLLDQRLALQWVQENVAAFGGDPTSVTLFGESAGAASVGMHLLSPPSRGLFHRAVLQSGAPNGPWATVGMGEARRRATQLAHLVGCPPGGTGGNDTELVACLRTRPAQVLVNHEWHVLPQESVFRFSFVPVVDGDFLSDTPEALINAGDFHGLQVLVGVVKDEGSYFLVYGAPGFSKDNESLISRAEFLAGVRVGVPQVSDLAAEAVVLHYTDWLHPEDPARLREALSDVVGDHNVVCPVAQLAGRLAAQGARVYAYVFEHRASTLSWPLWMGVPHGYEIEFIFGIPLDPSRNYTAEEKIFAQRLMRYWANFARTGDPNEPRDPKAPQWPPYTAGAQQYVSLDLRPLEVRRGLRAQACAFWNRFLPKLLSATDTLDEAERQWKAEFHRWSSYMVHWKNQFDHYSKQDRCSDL
Description: Neuronal AChE activity, enzyme preparation from SK-N-SH cells. The data set is classed as biochemical. The method, then: as §1, §2, §3

For data set [9], the target named is T6, β-amyloid-AChE complex (Homo sapiens, UniProt P22303).
T6 construct: purchased Sigma-Aldrich
T6 sequence (P22303 32-614, one chain of several): as the sequence (P22303 32-614) above
The data set can be described thus: Inhibition of β-amyloid aggregation (AChE-Aβ complex, Congo Red binding). The data set is classed as biochemical. As to conditions: compound at its AChE IC50, Aβ1-40 0.1 mM, Aβ-AChE 200:1, 48 hours. How it is done:
Inhibition of β-Amyloid Aggregation:
Stock solutions of Aβ1-40 at 3.5 mM were prepared in DMSO. The amount of peptide used in the assays was 0.1 mM. Human recombinant AChE (Sigma-Aldrich) was used at a molar ratio Aβ-AChE 200:1. For the aggregation studies the peptide was mixed with the appropriate amount of AChE in PBS pH 7.4 and stirred for 48 hours in -a microtiter plate at room temperature. The fibrils obtained were characterized by Congo Red (CR) binding.
For the inhibition of β-amyloid aggregation, the compounds tested were used at the IC50 defined in the previous paragraph of the biological evaluation. Propidium iodide 50 μM for comparison.

The target of data set [10] is T7, AChE from N2A cells (Mus musculus, UniProt P21836).
T7 construct: The assay solution consisted of AChE from neuronal cells; endogenous in cells; host or cells: N2A neuroblastoma cells
T7 sequence (P21836 32-614): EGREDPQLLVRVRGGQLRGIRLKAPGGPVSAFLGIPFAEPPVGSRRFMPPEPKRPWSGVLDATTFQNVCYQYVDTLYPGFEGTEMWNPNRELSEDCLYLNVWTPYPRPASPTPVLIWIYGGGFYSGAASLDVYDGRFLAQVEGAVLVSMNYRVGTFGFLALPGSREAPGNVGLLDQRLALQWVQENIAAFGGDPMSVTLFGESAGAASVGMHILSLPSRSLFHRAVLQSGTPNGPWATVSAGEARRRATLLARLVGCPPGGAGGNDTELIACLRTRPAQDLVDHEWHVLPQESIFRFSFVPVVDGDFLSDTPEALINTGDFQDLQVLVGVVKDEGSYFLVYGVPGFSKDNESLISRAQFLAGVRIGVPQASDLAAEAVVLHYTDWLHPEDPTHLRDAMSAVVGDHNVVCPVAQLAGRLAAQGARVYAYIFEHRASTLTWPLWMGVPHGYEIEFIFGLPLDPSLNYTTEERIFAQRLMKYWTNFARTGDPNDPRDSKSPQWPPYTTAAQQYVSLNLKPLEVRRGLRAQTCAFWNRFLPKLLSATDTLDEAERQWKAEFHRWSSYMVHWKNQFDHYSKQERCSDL
Description: Neuronal AChE activity, enzyme preparation from N2A cells. The data set is classed as biochemical. To be noted: pH 8, 0.5 mM acetylthiocholine iodide, read-out: IC50 AChE N2A (rat neuroblastoma). The method, then: as §1, §2, §3

In data set [11] the test system is SH—SY5Y cells exposed to β-amyloid fragment 25-35. Description: Effects on β-amyloid toxicity (fragment 25-35, LDH viability). The data set is classed as cell-based, human. To be noted: 1 hour pretreatment, Aβ 25-35 at 200 μM, 24 hours. How it is done: Effects on β-Amiloid Toxicity
We have tested if some of these molecules interfere with amyloid peptide toxicity. Cells SH—SY5Y were cultured in 96-well plates as toxicity experiments. Cells were pretreated for 1 hour with the compounds at different concentrations (from 10^−5 to 10^−9), immediately neuronal death is induced adding synthetic peptide β-amyloid, fragment 25-35 (A25-35) at 200 μM. 24 hours later cell viability was assessed with the LDH assay; results are reported relative to untreated wells.

T2 sequence (P06276 29-602): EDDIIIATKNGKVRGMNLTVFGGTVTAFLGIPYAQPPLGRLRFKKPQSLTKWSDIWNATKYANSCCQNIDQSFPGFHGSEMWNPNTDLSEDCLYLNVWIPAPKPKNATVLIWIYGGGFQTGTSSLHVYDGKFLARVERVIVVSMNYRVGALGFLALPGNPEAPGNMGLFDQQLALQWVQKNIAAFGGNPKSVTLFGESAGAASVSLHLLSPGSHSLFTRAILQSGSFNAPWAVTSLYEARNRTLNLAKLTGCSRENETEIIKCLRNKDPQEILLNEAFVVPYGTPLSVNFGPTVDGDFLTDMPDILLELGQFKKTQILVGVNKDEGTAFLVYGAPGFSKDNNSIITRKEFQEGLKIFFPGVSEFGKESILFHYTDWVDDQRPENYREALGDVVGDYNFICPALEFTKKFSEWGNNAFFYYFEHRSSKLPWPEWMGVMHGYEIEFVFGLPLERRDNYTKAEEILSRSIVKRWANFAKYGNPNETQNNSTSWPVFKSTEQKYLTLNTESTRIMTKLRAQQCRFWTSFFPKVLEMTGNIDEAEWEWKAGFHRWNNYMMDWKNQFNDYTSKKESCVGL
Sequence of AChE peripheral site (P22303 32-614): as the sequence (P22303 32-614) above
T4 sequence (P22303 32-614): as above
T3 sequence (P22303 32-617 isoform P22303-2 limits assumed): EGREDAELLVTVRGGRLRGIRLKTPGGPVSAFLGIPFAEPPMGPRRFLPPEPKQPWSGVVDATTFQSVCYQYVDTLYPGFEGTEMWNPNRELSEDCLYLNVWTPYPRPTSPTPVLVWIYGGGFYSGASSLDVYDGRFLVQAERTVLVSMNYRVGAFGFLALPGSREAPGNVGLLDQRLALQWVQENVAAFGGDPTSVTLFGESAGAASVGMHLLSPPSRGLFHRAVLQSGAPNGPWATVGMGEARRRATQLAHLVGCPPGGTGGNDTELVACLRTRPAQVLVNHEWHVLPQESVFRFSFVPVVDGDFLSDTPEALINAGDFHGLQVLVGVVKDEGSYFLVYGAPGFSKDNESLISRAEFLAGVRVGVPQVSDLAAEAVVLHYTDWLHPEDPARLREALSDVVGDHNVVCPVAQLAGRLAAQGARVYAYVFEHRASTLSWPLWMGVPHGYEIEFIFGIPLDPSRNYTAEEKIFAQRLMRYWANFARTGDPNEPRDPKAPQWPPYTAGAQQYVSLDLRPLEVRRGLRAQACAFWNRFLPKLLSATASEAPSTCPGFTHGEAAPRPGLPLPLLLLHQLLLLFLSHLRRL

In turn, `CCCn1s/c(=N\CCCCCCCNc2c3c(nc4ccccc24)CCCC3)n(CC)c1=O` [Compound 16, 4-Ethyl-2-propyl-5-[7-(1,2,3,4-tetrahydro-acridin-9-ylamino)-heptyl-imino]-[1,2,4]thiadiazolidin-3-one] had a Toxicity in [1] of 50 µM. For the same compound, the pIC50 in data set [2] was 6.35; in data set [4] it was 7.70; in data set [5], 6.69. The Propidium competition in [3] was more than 100 µM.
As for `COc1cc2c(cc1OC)C(=O)C(CNCCCCCCCNc1c3c(nc4ccccc14)CCCC3)C2` (stereo not drawn) [Compound 1, 5,6-Dimethoxy-2-{[7-(1,2,3,4-tetrahydro-acridin-9-ylamino)-heptylamino]-methyl}-indan-1-one], the pIC50 is 7.60 in [6], 5.36 in data set [7], 6.96 in data set [8] and 6.68 in data set [10]. The “reduction of the β-amyloid-AChE complex aggregation” value in data set [9] stood at 18.7%.
As to `Clc1ccc2c(NCCCCCCCNc3c4ccccc4nc4ccccc34)c3c(nc2c1)CCCC3` [Compound 23, N-Acridin-9-yl-N′-(6-chloro-1,2,3,4-tetrahydro-acridin-9-yl)-heptane-1,7-diamine], the “inhibition of Aβ(25-35) toxicity” value in [11] was determined as 1 µM. Further, in data set [1], the Toxicity was found to be 0.5 µM. The pIC50 was 9.40 in [2] and 7.70 in data set [4]. Also, the Propidium competition in [3] amounted to 1 µM.

For orientation: pIC50 means the negative decadic logarithm of the IC50, by convention in mol/L.
